Drawing on ChEMBL document CHEMBL1144019 (Bioorg Med Chem, 2008), this text covers MIC and Stability for six compounds.

The test system of data set [1] is Haemophilus influenzae. Briefly: Antibacterial activity against Haemophilus influenzae ATCC 49766 by standard serial agar dilution method. In kind it is functional. A general note: Agar dilution tests growth on a series of plates holding different concentrations.
Data set [2] has as its system Pseudomonas aeruginosa. Briefly: Antibacterial activity against Pseudomonas aeruginosa SR-5393 by standard serial agar dilution method. In kind it is functional.
A short description of data set [3]: Stability in presence of AmpC beta-lactamase. In kind it is ADME.
Data set [4] has as its system Moraxella catarrhalis. Briefly: Antibacterial activity against Moraxella catarrhalis ATCC 43617 by standard serial agar dilution method. In kind it is functional.
The subject of data set [5] is Staphylococcus aureus. Briefly: Antibacterial activity against Staphylococcus aureus Smith by standard serial agar dilution method. In kind it is functional.
The subject of data set [6] is Pseudomonas aeruginosa. Briefly: Antibacterial activity against Pseudomonas aeruginosa SR24 by standard serial agar dilution method. In kind it is functional.
Data set [7] concerns Escherichia coli. Briefly: Antibacterial activity against Toho 2 producing Escherichia coli by standard serial agar dilution method. In kind it is functional.
Data set [8] relates to Pseudomonas aeruginosa. Briefly: Antibacterial activity against AmpC hyperproducing Pseudomonas aeruginosa SR24-12 by standard serial agar dilution method. In kind it is functional.
The subject of data set [9] is Pseudomonas aeruginosa. Briefly: Antibacterial activity against imipenem-resistant Pseudomonas aeruginosa SR-6554 by standard serial agar dilution method. In kind it is functional.
The test system of data set [10] is Streptococcus pneumoniae. Briefly: Antibacterial activity against penicillin-resistant Streptococcus pneumoniae SR-16675 by standard serial agar dilution method. In kind it is functional.
The test system of data set [11] is Haemophilus influenzae. Briefly: Antibacterial activity against beta-lactamase negative ampicillin-resistant Haemophilus influenzae SR-11435 by standard serial agar dilution method. In kind it is functional.
Data set [12] deals with Escherichia coli. Briefly: Antibacterial activity against Escherichia coli SR-21003 by standard serial agar dilution method. In kind it is functional.
In data set [13] the test system is Enterobacter cloacae. Briefly: Antibacterial activity against Enterobacter cloacae ATCC 13047 by standard serial agar dilution method. In kind it is functional.
Data set [14] deals with Enterobacter cloacae. Briefly: Antibacterial activity against AmpC producing Enterobacter cloacae SR-4321 by standard serial agar dilution method. In kind it is functional.

Values after ≈ are worked out from the molar mass of the structure shown.

As for `CO/N=C(\C(=O)N[C@@H]1C(=O)N2C(C(=O)[O-])=C(C[N+]3(C)CCCC3)CS[C@H]12)c1csc(N)n1`, the MIC in data set [1] turned out to be 0.032 µg/mL (≈ 0.0666 µM); in data set [2], 4 µg/mL (≈ 8.32 µM); in data set [4] it was 0.5 µg/mL (≈ 1.04 µM); in data set [5] it was 2 µg/mL (≈ 4.16 µM); in data set [6], 0.5 µg/mL (≈ 1.04 µM); in data set [7], 4 µg/mL (≈ 8.32 µM). Also, the MIC was 32 µg/mL (≈ 66.6 µM) in data set [8]; 64 µg/mL (≈ 133 µM) in [9]; 2 µg/mL (≈ 4.16 µM) in data set [10]; 0.5 µg/mL (≈ 1.04 µM) in data set [11]; 0.063 µg/mL (≈ 0.131 µM) in data set [12]. Also, the Stability in data set [3] was found to be 12.9%.
As for `COC(=O)NCCn1ccc2c1ccc[n+]2CC1=C(C(=O)[O-])N2C(=O)[C@@H](NC(=O)/C(=N\O[C@@H](C)C(=O)O)c3nc(N)sc3Cl)[C@H]2SC1`, the MIC worked out at 0.032 µg/mL (≈ 0.0453 µM) in data set [1]; 8 µg/mL (≈ 11.3 µM) in data set [2]; 0.032 µg/mL (≈ 0.0453 µM) in data set [4]; 4 µg/mL (≈ 5.66 µM) in data set [5]; 2 µg/mL (≈ 2.83 µM) in data set [6]; 4 µg/mL (≈ 5.66 µM) in [7]. The MIC in [8] came out at 8 µg/mL (≈ 11.3 µM); in data set [9], 16 µg/mL (≈ 22.6 µM); in data set [13], 1 µg/mL (≈ 1.41 µM); in data set [10], 4 µg/mL (≈ 5.66 µM); in [11], 0.063 µg/mL (≈ 0.0891 µM); in [12], 0.5 µg/mL (≈ 0.707 µM). The MIC in data set [14] was 4 µg/mL (≈ 5.66 µM).
As to `C[C@H](O/N=C(\C(=O)N[C@@H]1C(=O)N2C(C(=O)[O-])=C(C[n+]3cccc4c3ccn4C)CS[C@H]12)c1nc(N)sc1Cl)C(=O)O`, the MIC in data set [1] was determined as 0.016 µg/mL (≈ 0.0258 µM); in data set [2], 2 µg/mL (≈ 3.23 µM); in data set [4], 0.016 µg/mL (≈ 0.0258 µM); in data set [5], 1 µg/mL (≈ 1.61 µM); in data set [6], 0.5 µg/mL (≈ 0.806 µM); in [7], 1 µg/mL (≈ 1.61 µM). Moreover, the MIC in data set [8] worked out at 4 µg/mL (≈ 6.45 µM); in [9], 16 µg/mL (≈ 25.8 µM); in data set [13], 0.25 µg/mL (≈ 0.403 µM); in data set [10], 2 µg/mL (≈ 3.23 µM); in data set [11] it was 0.032 µg/mL (≈ 0.0516 µM); in data set [12], 0.125 µg/mL (≈ 0.202 µM). Further, in data set [14], the MIC was 1 µg/mL (≈ 1.61 µM).
For the compound `CC(=O)NCCn1ccc2c1ccc[n+]2CC1=C(C(=O)[O-])N2C(=O)[C@@H](NC(=O)/C(=N\O[C@@H](C)C(=O)O)c3nc(N)sc3Cl)[C@H]2SC1`, the MIC in data set [1] was found to be 0.032 µg/mL (≈ 0.0463 µM); in data set [2], 4 µg/mL (≈ 5.79 µM); in data set [4], 0.032 µg/mL (≈ 0.0463 µM); in data set [5], 4 µg/mL (≈ 5.79 µM); in data set [6] it was 2 µg/mL (≈ 2.89 µM); in [7], 2 µg/mL (≈ 2.89 µM). The MIC came to 8 µg/mL (≈ 11.6 µM) in [8]; 16 µg/mL (≈ 23.1 µM) in data set [9]; 0.5 µg/mL (≈ 0.723 µM) in data set [13]; 4 µg/mL (≈ 5.79 µM) in data set [10]; 0.125 µg/mL (≈ 0.181 µM) in data set [11]; 0.25 µg/mL (≈ 0.362 µM) in data set [12]. The same compound gave an MIC in data set [14] of 4 µg/mL (≈ 5.79 µM).
With `C[C@H](O/N=C(\C(=O)N[C@@H]1C(=O)N2C(C(=O)[O-])=C(C[n+]3cccc4c3ccn4CCOC(N)=O)CS[C@H]12)c1nc(N)sc1Cl)C(=O)O`, the MIC came out at 0.032 µg/mL (≈ 0.0462 µM) in data set [1]; 2 µg/mL (≈ 2.89 µM) in [2]; 0.032 µg/mL (≈ 0.0462 µM) in [4]; 2 µg/mL (≈ 2.89 µM) in data set [5]; 0.5 µg/mL (≈ 0.721 µM) in [6]; 2 µg/mL (≈ 2.89 µM) in data set [7]. Moreover, the MIC is 4 µg/mL (≈ 5.77 µM) in data set [8]; 8 µg/mL (≈ 11.5 µM) in data set [9]; 0.25 µg/mL (≈ 0.361 µM) in [13]; 2 µg/mL (≈ 2.89 µM) in [10]; 0.063 µg/mL (≈ 0.0909 µM) in data set [11]; 0.25 µg/mL (≈ 0.361 µM) in [12]. In addition, the MIC in data set [14] is 2 µg/mL (≈ 2.89 µM).
As to `CNCCNc1cc[n+](CC2=C(C(=O)[O-])N3C(=O)[C@@H](NC(=O)/C(=N\O[C@@H](C)C(=O)O)c4nc(N)sc4Cl)[C@H]3SC2)cc1`, the MIC is 0.125 µg/mL (≈ 0.196 µM) in data set [1]; 2 µg/mL (≈ 3.13 µM) in data set [2]; 0.032 µg/mL (≈ 0.0501 µM) in [4]; 4 µg/mL (≈ 6.26 µM) in data set [5]; 0.5 µg/mL (≈ 0.782 µM) in [6]; 4 µg/mL (≈ 6.26 µM) in data set [7]. Also, the MIC amounted to 4 µg/mL (≈ 6.26 µM) in data set [8]; 16 µg/mL (≈ 25 µM) in [9]; 0.5 µg/mL (≈ 0.782 µM) in data set [13]; 4 µg/mL (≈ 6.26 µM) in [10]; 0.25 µg/mL (≈ 0.391 µM) in data set [11]; 0.5 µg/mL (≈ 0.782 µM) in data set [12]. Further, the MIC in data set [14] was 4 µg/mL (≈ 6.26 µM). Further, the Stability in data set [3] stood at 80.3%.
